From patent US7655679B2, “Derivatives of 2-aminothiazoles and 2-amino-oxazoles, processes for their preparation and their use as pharmaceutical compositions” (Sanofi-Aventis, priority 2005, dated 2010)
Where a name gives a salt, the structure may show the parent alone. Read-outs that look alike come from different tables or passages of the source.

Legend:
human PPARdelta = target: T1, human PPARdelta (Homo sapiens, UniProt Q03181); test: Cellular PPARdelta assay (luciferase reporter, stably transfected HEK cell line); format: cell-based; conditions: GR-GAL4-humanPPARdelta-LBD
T1 construct: amino acids S139-Y441; expressed in transfected cells; host or cells: HEK (human embryo kidney) cells, stably transfected; plasmid pcDNA3
T1 sequence (Q03181 139-441): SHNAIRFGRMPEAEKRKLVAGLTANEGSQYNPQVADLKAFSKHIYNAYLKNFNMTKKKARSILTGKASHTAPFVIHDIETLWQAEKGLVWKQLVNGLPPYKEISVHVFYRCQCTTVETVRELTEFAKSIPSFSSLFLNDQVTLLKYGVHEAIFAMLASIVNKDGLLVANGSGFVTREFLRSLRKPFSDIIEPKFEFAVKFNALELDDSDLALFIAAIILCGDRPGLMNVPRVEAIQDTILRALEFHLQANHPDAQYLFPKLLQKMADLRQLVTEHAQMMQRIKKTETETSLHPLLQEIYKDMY
Protocol: Determination of EC50 Values of PPAR Agonists in the Cellular PPARdelta Assay
(§1) The potency of substances which bind to human PPARdelta and activate it in an agonistic manner is analyzed using a stably transfected HEK cell line (HEK=human embryo kidney) which is referred to here as PPARdelta reporter cell line. In analogy to the assay described for PPARalpha, the PPARdelta reporter cell line also contains two genetic elements, a luciferase reporter element (pdeltaM-GAL4-Luc-Zeo) and a PPARdelta fusion protein (GR-GAL4-humanPPARdelta-LBD) which mediates expression of the luciferase reporter element depending on a PPARdelta ligand. The stably and constitutively expressed fusion protein GR-GAL4-humanPPARdelta-LBD binds in the cell nucleus of the PPARdelta reporter cell line via the GAL4 protein portion to the GAL4 DNA binding motifs 5′-upstream of the luciferase reporter element which is stably integrated in the genome of the cell line. There is only little expression of the luciferase reporter gene in the absence of a PPARdelta ligand if fatty acid-depleted fetal calf serum (cs-FCS) is used in the assay. PPARdelta ligands bind and activate the PPARdelta fusion protein and thereby stimulate expression of the luciferase reporter gene. The luciferase which is formed can be detected by means of chemiluminescence via an appropriate substrate.
The production of the stable PPARdelta reporter cell line is based on a stable HEK-cell clone which was stably transfected with a luciferase reporter element. This step was already described above in the section “construction of the PPARalpha reporter cell line”. In a second step, the PPARdelta fusion protein (GR-GAL4-humanPPARdelta-LBD was stably introduced into this cell clone. For this purpose, the cDNA coding for the N-terminal 76 amino acids of the glucocorticoid receptor (Accession # P04150) was linked to the cDNA section coding for amino acids 1-147 of the yeast transcription factor GAL4 (Accession # P04386). The cDNA of the ligand-binding domain of the human PPARdelta receptor (amino acids S139-Y441; Accession # L07592) was cloned in at the 3′-end of this GR-GAL4 construct. The fusion construct prepared in this way (GR-GAL4-humanPPARdelta-LBD) was recloned into the plasmid pcDNA3 (Invitrogen) in order to enable constitutive expression by the cytomegalovirus promoter. This plasmid was linearized with a restriction endonuclease and stably transfected into the previously described cell clone containing the luciferase reporter element. The resulting PPARdelta reporter cell line which contains a luciferase reporter element and constitutively expresses the PPARdelta fusion protein (GR-GAL4-human PPARdelta-LBD) was isolated by selection with zeocin (0.5 mg/ml) and G418 (0.5 mg/ml).
The activity of PPARdelta agonists is determined in a 3-day assay in exact analogy to the procedure already described for the PPARalpha reporter cell line except that the PPARdelta reporter cell line and a specific PPARdelta agonist was used as a standard to control test efficacy.

human PPARalpha = target: T2, human PPARalpha (Homo sapiens, UniProt Q07869); test: Cellular PPARalpha assay (luciferase reporter, stably transfected HEK cell line); format: cell-based; conditions: GR-GAL4-humanPPARalpha-LBD
T2 construct: amino acids S167-Y468; expressed in transfected cells; host or cells: HEK (human embryo kidney) cells, stably transfected; plasmid pcDNA3
T2 sequence (Q07869 167-468): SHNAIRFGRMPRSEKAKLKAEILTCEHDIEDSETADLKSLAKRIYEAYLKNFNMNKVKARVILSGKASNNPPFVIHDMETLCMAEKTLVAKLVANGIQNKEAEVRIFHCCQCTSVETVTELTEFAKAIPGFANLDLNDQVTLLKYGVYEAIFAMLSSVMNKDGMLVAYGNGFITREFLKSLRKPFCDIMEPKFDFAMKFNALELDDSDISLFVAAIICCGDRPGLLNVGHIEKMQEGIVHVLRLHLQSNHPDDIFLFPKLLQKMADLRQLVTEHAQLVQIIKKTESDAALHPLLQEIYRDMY
Protocol: Determination of EC50 Values of PPAR Agonists in the Cellular PPARalpha Assay
as §1, with “PPARalpha” for “PPARdelta”, “It” for “In analogy to the assay described for PPARalpha, the PPARdelta reporter cell line also”, “(GR-GAL4-humanPPARalpha-LBD)” for “(GR-GAL4-humanPPARdelta-LBD)”, “GR-GAL4-humanPPARalpha-LBD” for “GR-GAL4-humanPPARdelta-LBD”, “weak” for “little”, “stimulate the” for “stimulate”
The PPARalpha reporter cell line was prepared in two stages. Firstly, the luciferase reporter element was constructed and stably transfected into HEK cells. For this purpose, five binding sites of the yeast transcription factor GAL4 (Accession # AF264724) were cloned in 5′-upstream of a 68 bp-long minimal MMTV promoter (Accession # V01175). The minimal MMTV promoter section contains a […] and a TATA element in order to enable efficient transcription by RNA polymerase II. The cloning and sequencing of the GAL4-MMTV construct took place in analogy to the description of Sambrook J. et. al. (Molecular cloning, Cold Spring Harbor Laboratory Press, 1989). Then the complete Photinus pyralis gene (Accession # M15077) was cloned in 3′-downstream of the GAL4-MMTV element. After sequencing, the luciferase reporter element consisting of five GAL4 binding sites, MMTV promoter and luciferase gene was recloned into a plasmid which confers zeocin resistance in order to obtain the plasmid pdeltaM-GAL4-Luc-Zeo. This vector was transfected into HEK cells in accordance with the statements in Ausubel, F. M. et al. (Current protocols in molecular biology, Vol. 1-3, John Wiley & Sons, Inc., 1995).
In a second step, the PPARalpha fusion protein (GR-GAL4-humanPPARalpha-LBD was introduced into the stable cell clone described. For this purpose, initially the cDNA coding for the N-terminal 76 amino acids of the glucocorticoid receptor (Accession # P04150) was linked to the cDNA section coding for amino acids 1-147 of the yeast transcription factor GAL4 (Accession # P04386). The cDNA of the ligand-binding domain of the human PPARalpha receptor (amino acids S167-Y468; Accession # S74349) was cloned in at the 3′-end of this GR-GAL4 construct. The fusion construct prepared in this way (GR-GAL4-humanPPARalpha-LBD) was recloned into the plasmid pcDNA3 (Invitrogen) in order to enable constitutive expression therein by the cytomegalovirus promoter. This plasmid was linearized with a restriction endonuclease and stably transfected into the previously described cell clone containing the luciferase reporter element. The finished PPARalpha reporter cell line which contains a luciferase reporter element and constitutively expresses the PPARalpha fusion protein (GR-GAL4-human PPARalpha-LBD) was isolated by selection with zeocin (0.5 mg/ml) and G418 (0.5 mg/ml).
The activity of PPARalpha agonists is determined in a 3-day assay which is described below: […]

[1] = diabetic animal model; cited from earlier work
[2] = obese, insulin resistant rhesus monkeys; cited from earlier work
[3] = cynomoigus monkeys; cited from earlier work
[4] = two weeks clinical trials in healthy volunteers; cited from earlier work
[5] = rhesus monkeys; cited from earlier work

Structure (SMILES) | EC50 (human PPARdelta) [nM] | EC50 (human PPARalpha) [nM] | further results
Cc1cc(CCN(CC2CCOCC2)c2nc3ccc(C(F)(F)F)cc3s2)ccc1-c1noc(=O)[nH]1 [Example 9, 3-(2-Methyl-4-{2-[(tetrahydro-pyran-4-ylmethyl)-(6-trifluoromethyl-benzothiazol-2-yl)-amino]-ethyl}-phenyl)-4H-[1,2,4]oxadiazol-5-one] | 20 | 60 | –
COCCCN(CCc1ccc(-c2noc(=O)[nH]2)c(C)c1)c1nc2ccc(C(F)(F)F)cc2s1 [Example 14, 3-(4-{2-[(3-Methoxy-propyl)-(6-trifluoromethyl-benzothiazol-2-yl)-amino]-ethyl}-2-methyl-phenyl)-4H-[1,2,4]oxadiazol-5-one] | 4 | 70 | –
COCCN(CCc1ccc(-c2noc(=O)[nH]2)cc1)c1nc(-c2ccc(Cl)cc2)cs1 [Example 23, 3-(4-{2-[[4-(4-Chloro-phenyl)-thiazol-2-yl]-(2-methoxy-ethyl)-amino]-ethyl}-phenyl)-4H-[1,2,4]oxadiazol-5-one] | 650 | 820 | –
CCCCN(Cc1ccc(-c2noc(=O)[nH]2)c(F)c1)c1nc2ccc(C(F)(F)F)cc2s1 [Example 24, 3-(4-{[Butyl-(6-trifluoromethyl-benzothiazol-2-yl)-amino]-methyl}-2-fluoro-phenyl)-4H-[1,2,4]oxadiazol-5-one] | 270 | 1350 | –
COCCN(Cc1ccc(-c2noc(=O)[nH]2)c(F)c1)c1nc2ccc(C(F)(F)F)cc2s1 [Example 28, 3-(2-Fluoro-4-{[(2-methoxy-ethyl)-(6-trifluoromethyl-benzothiazol-2-yl)-amino]-methyl}-phenyl)-4H-[1,2,4]oxadiazol-5-one] | 60 | 1020 | –
CN(C)CCN(Cc1ccc(-c2noc(=O)[nH]2)c(C(F)(F)F)c1)c1nc2ccc(C(F)(F)F)cc2s1 [Example 33, 3-(4-{[(2-Dimethylamino-ethyl)-(6-trifluoromethyl-benzothiazol-2-yl)-amino]-methyl}-2-trifluoromethyl-phenyl)-4H-[1,2,4]oxadiazol-5-one trifluoroacetate] | 1800 | 1100 | –
COCCCN(Cc1ccc(-c2noc(=O)[nH]2)c(F)c1)c1nc(-c2ccc(Cl)cc2)cs1 [Example 39, 3-(4-{[[4-(4-Chloro-phenyl)-thiazol-2-yl]-(3-methoxy-propyl)-amino]-methyl}-2-fluoro-phenyl) -4H-[1,2,4]oxadiazol-5-one] | 200 | 360 | –
CCCc1c(OCCCOc2ccc(OCC(=O)O)cc2)ccc(C(C)=O)c1O [Example L-165041] | – | – | plasma cholesterol [1]: raises
Cc1cc(SCc2sc(-c3ccc(C(F)(F)F)cc3)nc2C)ccc1OCC(=O)O [GW501516] | – | – | HDL-cholesterol [2]: raises; insulin levels [2]: decreases; plasma LDL-cholesterol [2]: decreases; plasma triglycerides [2]: decreases
CCCc1c(OCCCSc2nnc(SCC(=O)O)s2)ccc(C(C)=O)c1O [YM-16638] | – | – | plasma lipids [3]: significantly lowers; plasma lipids [4]: acts in a similar manner; plasma lipids [5]: significantly lowers
